Inconclusive results and toxic doses are left out. Cut-off read from the data, not from the text of the source: active = T/C of 150% or more; inactive = T/C below 125%.
Tested on: L1210 leukemia ip in BDF1 mice, survival T/C
Test: NCI In Vivo Anticancer Drug Screen. Data for tumor model L1210 Leukemia (intraperitoneal) in B6D2F1 (BDF1) mice
Details: higher = longer survival
Outline: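 Antitumor effect is assessed in tumor-bearing animals. Survival in the compound arm is compared with a vehicle-dosed control arm and expressed as their quotient.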

[1] = endpoint: mean survival time, dose: 100.0 mg/kg/injection, schedule: Q01DX001 (ip), vehicle: saline
[2] = endpoint: mean survival time, dose: 200.0 mg/kg/injection, schedule: Q01DX001 (ip), vehicle: saline
[3] = endpoint: mean survival time, dose: 400.0 mg/kg/injection, schedule: Q01DX001 (ip), vehicle: saline
[4] = endpoint: mean survival time, dose: 100.0 mg/kg/injection, schedule: Q01DX001 (ip), vehicle: carboxymethylcellulose (CMC)
[5] = endpoint: mean survival time, dose: 200.0 mg/kg/injection, schedule: Q01DX001 (ip), vehicle: carboxymethylcellulose (CMC)
[6] = endpoint: mean survival time, dose: 100.0 mg/kg/injection, schedule: Q01DX009 (ip), vehicle: saline with Tween-80
[7] = endpoint: mean survival time, dose: 200.0 mg/kg/injection, schedule: Q01DX009 (ip), vehicle: saline with Tween-80
[8] = endpoint: mean survival time, dose: 400.0 mg/kg/injection, schedule: Q01DX009 (ip), vehicle: saline with Tween-80

Measured: T/C

CCOC(=O)CC(C(=O)OCC)N1CCCCC1 (stereo not drawn)
inactive: [1] 92 % of control | endpoint: mean survival time, dose: 100.0 mg/kg/injection, schedule: Q01DX009 (ip), vehicle: alcohol 95 % of control | endpoint: mean survival time, dose: 100.0 mg/kg/injection, schedule: Q04DX003 (ip), vehicle: alcohol 100 % of control | [2] 91 % of control | endpoint: mean survival time, dose: 200.0 mg/kg/injection, schedule: Q01DX009 (ip), vehicle: alcohol 95 % of control | endpoint: mean survival time, dose: 200.0 mg/kg/injection, schedule: Q04DX003 (ip), vehicle: alcohol 95 % of control | [3] 94 % of control | endpoint: mean survival time, dose: 400.0 mg/kg/injection, schedule: Q01DX009 (ip), vehicle: alcohol 105 % of control | endpoint: mean survival time, dose: 400.0 mg/kg/injection, schedule: Q04DX003 (ip), vehicle: alcohol 97 % of control

COc1ccc2ccccc2c1Br
inactive: [4] 98 % of control | [5] 98 % of control | endpoint: mean survival time, dose: 400.0 mg/kg/injection, schedule: Q01DX001 (ip), vehicle: carboxymethylcellulose (CMC) 98 % of control

CC(=O)OC1(C)CC(C)C(=O)C(C(O)CC2CC(=O)NC(=O)C2)C1 (stereo not drawn)
inactive: endpoint: mean survival time, dose: 0.05 mg/kg/injection, schedule: Q01DX009 (ip), vehicle: saline with Tween-80 108 % of control | endpoint: mean survival time, dose: 0.06 mg/kg/injection, schedule: Q01DX009 (ip), vehicle: water 107 % of control | endpoint: mean survival time, dose: 0.1 mg/kg/injection, schedule: Q01DX009 (ip), vehicle: saline with Tween-80 114 % of control | endpoint: mean survival time, dose: 0.12 mg/kg/injection, schedule: Q01DX009 (ip), vehicle: saline 117 % of control | endpoint: mean survival time, dose: 0.15 mg/kg/injection, schedule: Q01DX009 (ip), vehicle: saline with Tween-80 91 % of control | endpoint: mean survival time, dose: 0.15 mg/kg/injection, schedule: Q01DX009 (ip), vehicle: saline 120 % of control | endpoint: mean survival time, dose: 0.2 mg/kg/injection, schedule: Q01DX009 (ip), vehicle: saline with Tween-80 120 % of control | endpoint: mean survival time, dose: 0.25 mg/kg/injection, schedule: Q01DX009 (ip), vehicle: saline 109 % of control | endpoint: mean survival time, dose: 0.3 mg/kg/injection, schedule: Q01DX009 (ip), vehicle: saline 118 % of control | endpoint: mean survival time, dose: 0.5 mg/kg/injection, schedule: Q01DX009 (ip), vehicle: saline 96 % of control | endpoint: mean survival time, dose: 0.5 mg/kg/injection, schedule: Q01DX009 (ip), vehicle: water 108 % of control | endpoint: mean survival time, dose: 0.5 mg/kg/injection, schedule: Q04DX003 (ip), vehicle: water 108 % of control | endpoint: mean survival time, dose: 1.0 mg/kg/injection, schedule: Q01DX009 (ip), vehicle: water 100 % of control | endpoint: mean survival time, dose: 1.0 mg/kg/injection, schedule: Q04DX003 (ip), vehicle: saline 115 % of control | endpoint: mean survival time, dose: 1.0 mg/kg/injection, schedule: Q04DX003 (ip), vehicle: water 109 % of control | endpoint: mean survival time, dose: 1.2 mg/kg/injection, schedule: Q01DX009 (ip), vehicle: saline 115 % of control | endpoint: mean survival time, dose: 2.0 mg/kg/injection, schedule: Q01DX001 (ip), vehicle: saline 102 % of control | endpoint: mean survival time, dose: 2.0 mg/kg/injection, schedule: Q04DX003 (ip), vehicle: saline 116 % of control | endpoint: mean survival time, dose: 2.0 mg/kg/injection, schedule: Q04DX003 (ip), vehicle: water 108 % of control | endpoint: mean survival time, dose: 2.0 mg/kg/injection, schedule: Q08DX002 (ip), vehicle: saline 102 % of control | endpoint: mean survival time, dose: 4.0 mg/kg/injection, schedule: Q01DX001 (ip), vehicle: saline 100 % of control | endpoint: mean survival time, dose: 4.0 mg/kg/injection, schedule: Q04DX003 (ip), vehicle: saline 114 % of control | endpoint: mean survival time, dose: 4.0 mg/kg/injection, schedule: Q04DX003 (ip), vehicle: water 100 % of control | endpoint: mean survival time, dose: 4.0 mg/kg/injection, schedule: Q08DX002 (ip), vehicle: saline 98 % of control | endpoint: mean survival time, dose: 8.0 mg/kg/injection, schedule: Q01DX001 (ip), vehicle: saline 109 % of control | endpoint: mean survival time, dose: 8.0 mg/kg/injection, schedule: Q08DX002 (ip), vehicle: saline 100 % of control | endpoint: mean survival time, dose: 62.5 micrograms/kg/injection, schedule: Q01DX009 (ip), vehicle: saline 115 % of control | endpoint: mean survival time, dose: 125.0 micrograms/kg/injection, schedule: Q01DX009 (ip), vehicle: saline 123 % of control | endpoint: mean survival time, dose: 125.0 micrograms/kg/injection, schedule: Q03HX008 (ip), vehicle: saline 104 % of control | endpoint: mean survival time, dose: 125.0 micrograms/kg/injection, schedule: Q03HX016 (ip), vehicle: saline 123 % of control | endpoint: mean survival time, dose: 250.0 micrograms/kg/injection, schedule: Q01DX009 (ip), vehicle: saline 101 % of control | endpoint: mean survival time, dose: 250.0 micrograms/kg/injection, schedule: Q03HX008 (ip), vehicle: saline 112 % of control | endpoint: median survival time, dose: 1.0 mg/kg/injection, schedule: Q04DX003 (ip), vehicle: saline 103 % of control | endpoint: median survival time, dose: 2.0 mg/kg/injection, schedule: Q04DX003 (ip), vehicle: saline 105 % of control | endpoint: median survival time, dose: 4.0 mg/kg/injection, schedule: Q04DX003 (ip), vehicle: saline 106 % of control | endpoint: median survival time, dose: 8.0 mg/kg/injection, schedule: Q04DX003 (ip), vehicle: saline 114 % of control

CC(C)(C)C(=O)C(C)(C)C
inactive: [4] 106 % of control | [5] 101 % of control

CCN(CC)CCOC(=O)c1ccccc1N(c1ccccc1)c1ccccc1
inactive: endpoint: mean survival time, dose: 25.0 mg/kg/injection, schedule: Q01DX009 (ip), vehicle: saline 98 % of control | endpoint: mean survival time, dose: 50.0 mg/kg/injection, schedule: Q01DX009 (ip), vehicle: saline 98 % of control | endpoint: mean survival time, dose: 62.5 mg/kg/injection, schedule: Q01DX015 (ip), vehicle: saline 91 % of control | [1] 92 % of control | endpoint: mean survival time, dose: 100.0 mg/kg/injection, schedule: Q01DX009 (ip), vehicle: saline 98 % of control | endpoint: mean survival time, dose: 100.0 mg/kg/injection, schedule: Q04DX003 (ip), vehicle: acetone 96 % of control | endpoint: mean survival time, dose: 125.0 mg/kg/injection, schedule: Q01DX015 (ip), vehicle: saline 95 % of control | endpoint: mean survival time, dose: 150.0 mg/kg/injection, schedule: Q01DX009 (ip), vehicle: acetone 96 % of control | [2] 103 % of control | [3] 98 % of control

C/C(=C\c1c[nH]c2ccccc12)[N+](=O)[O-]
inactive: [6] 90 % of control | endpoint: mean survival time, dose: 100.0 mg/kg/injection, schedule: Q04DX003 (ip), vehicle: saline with Tween-80 97 % of control | [7] 100 % of control | endpoint: mean survival time, dose: 200.0 mg/kg/injection, schedule: Q04DX003 (ip), vehicle: saline with Tween-80 97 % of control | [8] 100 % of control | endpoint: mean survival time, dose: 400.0 mg/kg/injection, schedule: Q04DX003 (ip), vehicle: saline with Tween-80 90 % of control

FC(Cl)C(F)(F)Br (stereo not drawn)
inactive: endpoint: mean survival time, dose: 75.0 mg/kg/injection, schedule: Q01DX005 (ip), vehicle: saline 95 % of control | endpoint: mean survival time, dose: 150.0 mg/kg/injection, schedule: Q01DX005 (ip), vehicle: saline 101 % of control | endpoint: mean survival time, dose: 300.0 mg/kg/injection, schedule: Q01DX005 (ip), vehicle: saline 98 % of control | endpoint: mean survival time, dose: 600.0 mg/kg/injection, schedule: Q01DX001 (ip), vehicle: acetone 101 % of control

CCC1(c2ccccc2)C(=O)N(CCl)C(=O)N(CCl)C1=O
inactive: [6] 93 % of control | endpoint: mean survival time, dose: 100.0 mg/kg/injection, schedule: Q04DX002 (ip), vehicle: saline with Tween-80 103 % of control | [7] 87 % of control | endpoint: mean survival time, dose: 200.0 mg/kg/injection, schedule: Q04DX002 (ip), vehicle: saline with Tween-80 92 % of control | [8] 90 % of control | endpoint: mean survival time, dose: 400.0 mg/kg/injection, schedule: Q04DX002 (ip), vehicle: saline with Tween-80 95 % of control

CCOC(=O)C(=O)C(C#N)c1cccc2ccccc12 (stereo not drawn)
inactive: endpoint: mean survival time, dose: 100.0 mg/kg/injection, schedule: Q04DX003 (ip), vehicle: Klucel (hydroxypropylcellulose) (HPC) 100 % of control | endpoint: mean survival time, dose: 200.0 mg/kg/injection, schedule: Q04DX003 (ip), vehicle: Klucel (hydroxypropylcellulose) (HPC) 96 % of control

— PubChem BioAssay AID248 (DTP/NCI, 2004)
